Experimental data from US20240208961A1, “EIF4E INHIBITORS AND USES THEREOF” (PIC Therapeutics, Inc., priority 2022, published 2024).
Several values for one entry are separate records, joined by “and”; a condition that tells them apart may be missing. Equal values may be shown once. Read-outs that look alike come from different tables or passages of the source.

Legend:
[1] = Pharmacokinetic studies of certain compounds in female Balb/c mice (Example 5); type: in vivo
How it was run: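 Female Balb/c mice (N=9) were fasted overnight and given compound PO as a suspension in 1% CMC/0.2% Tween 80 or IV in 5% DMSO/5% Solutol HS15/90% saline. Facial-vein plasma was taken from 0.083 to 24 h and assayed by LC-MS. Parameters are non-compartmental, and F was based on AUCINF or AUClast.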

NIHOVCAR3 = assay: Cell viability assay, adherent cell line, 5 day Alamar Blue (Example 8): NIHOVCAR3; type: cell-based; conditions: Homo sapiens, OVCAR-3, 120 h, OVCAR3, Ovarian Cancer Cell
HPAFII = assay: Cell viability assay, adherent cell line, 5 day Alamar Blue (Example 8): HPAFII; type: cell-based; conditions: Homo sapiens, HPAF-II, 120 h, Pancreatic Cancer Cell
[2] = I-29 IV 1.48 mg/kg, 4 hr, BQL = below quantifiable limit of 3.00 ng/mL
[3] = I-29 IV 1.48 mg/kg, 8 hr, BQL = below quantifiable limit of 3.00 ng/mL
[4] = I-29 IV 1.48 mg/kg, 24 hr, BQL = below quantifiable limit of 3.00 ng/mL
[5] = I-29 PO 23.8 mg/kg, 24 hr, BQL = below quantifiable limit of 3.00 ng/mL
[6] = mouse, plasma, I-29 IV 1.48 mg/kg
[7] = mouse, plasma, I-29 PO 23.8 mg/kg

CC(C)Cc1sc(Nc2ncc(-c3cccs3)cc2C(=O)O)nc1C1CCC(F)(F)CC1 [Compound I-29]
Plasma concentration Individual ([1]; I-29 IV 1.48 mg/kg, 0.083 hr, 1.48 mg/kg): 641 ng/mL and 603 ng/mL
Plasma concentration Individual ([1]; I-29 IV 1.48 mg/kg, 0.25 hr, 1.48 mg/kg): 121 ng/mL and 162 ng/mL and 336 ng/mL
Plasma concentration Individual ([1]; I-29 IV 1.48 mg/kg, 0.5 hr, 1.48 mg/kg): 71.2 ng/mL and 51.0 ng/mL
Plasma concentration Individual ([1]; I-29 IV 1.48 mg/kg, 1 hr, 1.48 mg/kg): 15.9 ng/mL and 81.1 ng/mL and 29.6 ng/mL
Plasma concentration Individual ([1]; I-29 IV 1.48 mg/kg, 2 hr, 1.48 mg/kg): 3.54 ng/mL and 4.97 ng/mL and 7.24 ng/mL
Plasma concentration Individual [1, 2]: BQL
Plasma concentration Mean [1, 2]: BQL
Plasma concentration Individual [1, 3]: BQL
Plasma concentration Mean [1, 3]: BQL
Plasma concentration Individual [1, 4]: BQL
Plasma concentration Mean [1, 4]: BQL
F ([1]; I-29 PO 23.8 mg/kg vs IV 1.48 mg/kg): 67.3%
Plasma concentration Individual ([1]; I-29 PO 23.8 mg/kg, 0.083 hr, 23.8 mg/kg): 39.6 ng/mL and 53.6 ng/mL
Plasma concentration Individual ([1]; I-29 PO 23.8 mg/kg, 0.25 hr, 23.8 mg/kg): 147 ng/mL and 146 ng/mL
Plasma concentration Individual ([1]; I-29 PO 23.8 mg/kg, 0.5 hr, 23.8 mg/kg): 344 ng/mL and 464 ng/mL
Plasma concentration Individual ([1]; I-29 PO 23.8 mg/kg, 1 hr, 23.8 mg/kg): 237 ng/mL and 618 ng/mL and 703 ng/mL
Plasma concentration Individual ([1]; I-29 PO 23.8 mg/kg, 2 hr, 23.8 mg/kg): 620 ng/mL and 640 ng/mL
Plasma concentration Individual ([1]; I-29 PO 23.8 mg/kg, 4 hr, 23.8 mg/kg): 147 ng/mL and 218 ng/mL
Plasma concentration Individual ([1]; I-29 PO 23.8 mg/kg, 8 hr, 23.8 mg/kg): 106 ng/mL and 75.9 ng/mL
Plasma concentration Individual [1, 5]: BQL
Plasma concentration Mean [1, 5]: BQL
concentration at 0.083 hr ([1]; female, Balb/c, mouse, plasma, iv, 1.48 mg/kg, I-29 IV 1.48 mg/kg, 0.083 hr, read-out: Plasma concentration Individual): 558 ng/mL
concentration at 0.083 hr ([1]; female, Balb/c, mouse, plasma, iv, 1.48 mg/kg, I-29 IV 1.48 mg/kg, 0.083 hr, read-out: Plasma concentration Mean): 601 ng/mL
concentration at 0.25 hr ([1]; female, Balb/c, mouse, plasma, iv, 1.48 mg/kg, I-29 IV 1.48 mg/kg, 0.25 hr, read-out: Plasma concentration Mean): 206 ng/mL
concentration at 0.5 h ([1]; female, Balb/c, mouse, plasma, iv, 1.48 mg/kg, I-29 IV 1.48 mg/kg, 0.5 hr, read-out: Plasma concentration Individual): 95.5 ng/mL
concentration at 0.5 h ([1]; female, Balb/c, mouse, plasma, iv, 1.48 mg/kg, I-29 IV 1.48 mg/kg, 0.5 hr, read-out: Plasma concentration Mean): 72.6 ng/mL
concentration at 1 h ([1]; female, Balb/c, mouse, plasma, iv, 1.48 mg/kg, I-29 IV 1.48 mg/kg, 1 hr, read-out: Plasma concentration Mean): 42.2 ng/mL
concentration at 2 hr ([1]; female, Balb/c, mouse, plasma, iv, 1.48 mg/kg, I-29 IV 1.48 mg/kg, 2 hr, read-out: Plasma concentration Mean): 5.25 ng/mL
concentration at 0.083 hr ([1]; female, Balb/c, mouse, plasma, po, 23.8 mg/kg, I-29 PO 23.8 mg/kg, 0.083 hr, read-out: Plasma concentration Individual): 31.6 ng/mL
concentration at 0.083 hr ([1]; female, Balb/c, mouse, plasma, po, 23.8 mg/kg, I-29 PO 23.8 mg/kg, 0.083 hr, read-out: Plasma concentration Mean): 41.6 ng/mL
concentration at 0.25 hr ([1]; female, Balb/c, mouse, plasma, po, 23.8 mg/kg, I-29 PO 23.8 mg/kg, 0.25 hr, read-out: Plasma concentration Individual): 160 ng/mL
concentration at 0.25 hr ([1]; female, Balb/c, mouse, plasma, po, 23.8 mg/kg, I-29 PO 23.8 mg/kg, 0.25 hr, read-out: Plasma concentration Mean): 151 ng/mL
concentration at 0.5 hr ([1]; female, Balb/c, mouse, plasma, po, 23.8 mg/kg, I-29 PO 23.8 mg/kg, 0.5 hr, read-out: Plasma concentration Individual): 305 ng/mL
concentration at 0.5 hr ([1]; female, Balb/c, mouse, plasma, po, 23.8 mg/kg, I-29 PO 23.8 mg/kg, 0.5 hr, read-out: Plasma concentration Mean): 371 ng/mL
concentration at 1 hr ([1]; female, Balb/c, mouse, plasma, po, 23.8 mg/kg, I-29 PO 23.8 mg/kg, 1 hr, read-out: Plasma concentration Mean): 519 ng/mL
concentration at 2 hr ([1]; female, Balb/c, mouse, plasma, po, 23.8 mg/kg, I-29 PO 23.8 mg/kg, 2 hr, read-out: Plasma concentration Individual): 554 ng/mL
concentration at 2 hr ([1]; female, Balb/c, mouse, plasma, po, 23.8 mg/kg, I-29 PO 23.8 mg/kg, 2 hr, read-out: Plasma concentration Mean): 605 ng/mL
concentration at 4 hr ([1]; female, Balb/c, mouse, plasma, po, 23.8 mg/kg, I-29 PO 23.8 mg/kg, 4 hr, read-out: Plasma concentration Individual): 187 ng/mL
concentration at 4 hr ([1]; female, Balb/c, mouse, plasma, po, 23.8 mg/kg, I-29 PO 23.8 mg/kg, 4 hr, read-out: Plasma concentration Mean): 184 ng/mL
concentration at 8 hr ([1]; female, Balb/c, mouse, plasma, po, 23.8 mg/kg, I-29 PO 23.8 mg/kg, 8 hr, read-out: Plasma concentration Individual): 57.1 ng/mL
concentration at 8 hr ([1]; female, Balb/c, mouse, plasma, po, 23.8 mg/kg, I-29 PO 23.8 mg/kg, 8 hr, read-out: Plasma concentration Mean): 79.7 ng/mL
AUC(0-inf) [1, 6]: 225 ng·h/mL
AUC(0-t) [1, 6]: 222 ng·h/mL
C0 [1, 6]: 1020 ng/mL
MRT inf [1, 6]: 0.33 h
MRT last [1, 6]: 0.304 h
clearance [1, 6]: 110 mL/min/kg
half-life [1, 6]: 0.352 h
Vd ([1]; mouse, plasma, I-29 IV 1.48 mg/kg, read-out: Vss): 2.18 L/kg
AUC(0-inf) [1, 7]: 2430 ng·h/mL
AUC(0-t) [1, 7]: 2180 ng·h/mL
Cmax [1, 7]: 605 ng/mL
MRT inf [1, 7]: 3.51 h
MRT last [1, 7]: 2.64 h
Tmax [1, 7]: 2 h
half-life [1, 7]: 2.17 h
IC50 (NIHOVCAR3): 1 to 8 µM
IC50 (HPAFII): 1 to 8 µM
